The test system of one assay is Venturia inaequalis. The assay can be described thus: In vivo fungicidal evaluation, Apple Scab (AS). Further: ranges in brackets are in %. The note with it: 200 ppm foliar spray. The method, then:
(§1) Test compounds are dissolved or suspended in acetone and diluted with deionized water containing about 0.05% TWEEN®20, a polyoxyethylene sorbitan monolaurate surfactant manufactured by Atlas Chemical Industries, to give a concentration of 200 ppm. Host plants are sprayed with the test solution, dried and inoculated with fungi. When disease symptom development is optimal, the plants are rated for disease control according to the rating scale shown below. Each test contains inoculated treated plants, inoculated untreated plants and a reference standard. When more than one test is run, the data are averaged. The data obtained are shown in Table I. |AS Apple Scab Venturia inaequalis

A further assay deals with Plasmopara viticola. The assay can be described thus: In vivo fungicidal evaluation, Grape Downy Mildew (GDM). Further: ranges in brackets are in %. The note with it: 200 ppm foliar spray. On the procedure:
as §1, with “|GDM Grape Downy Mildew | Plasmopara viticola” for “|AS Apple Scab Venturia inaequalis”

The test system of the next assay is Botrytis cinerea. The assay can be described thus: In vivo fungicidal evaluation, Pepper Botrytis (PB). Further: ranges in brackets are in %. The note with it: 200 ppm foliar spray. The method, then: as §1, with “|PB Pepper Botrytis Botrytis cinerea” for “|AS Apple Scab Venturia inaequalis”
In another assay the test system is Pyricularia grisea. The class given is in vivo. The note with it: Rice Blast; 200 ppm foliar spray.
The test system of a further assay is Cercospora beticola. As to the kind of experiment: In vivo fungicidal evaluation, Sugar Beet Cercospora (SBC). Further: ranges in brackets are in %. The note with it: 200 ppm foliar spray. The method, then:
as §1, with “|SBC Sugar Beet Cercospora | Cercospora beticola” for “|AS Apple Scab Venturia inaequalis”

For another assay, the system named is Alternaria solani. The assay can be described thus: In vivo fungicidal evaluation, Tomato Early Blight (TEB). Further: ranges in brackets are in %. The note with it: 200 ppm foliar spray. On the procedure: as §1, with “|TEB Tomato Early Blight | Alternaria solani” for “|AS Apple Scab Venturia inaequalis”
Assay [1] deals with Erysiphe graminis f. sp. tritici. As to the kind of experiment: In vivo fungicidal evaluation, Wheat Powdery Mildew (WPM). Further: ranges in brackets are in %. The note with it: 200 ppm foliar spray. On the procedure:
as §1, with “|WPM Wheat Powdery Mildew | Erysiphe graminis | f. sp. tritici” for “|AS Apple Scab Venturia inaequalis”

A further assay relates to Septoria nodorum. As to the kind of experiment: In vivo fungicidal evaluation, Wheat Septoria Nodorum (WSN). The note with it: 200 ppm foliar spray. The method, then:
Test compounds are dissolved or suspended in acetone and diluted with deionized water containing about 0.05% TWEEN®20, a polyoxyethylene sorbitan monolaurate surfactant manufactured by Atlas Chemical Industries, to give a concentration of 200 ppm.
Host plants are sprayed with the test solution, dried and inoculated with fungi. When disease symptom development is optimal, the plants are rated for disease control according to the rating scale shown below. Each test contains inoculated treated plants, inoculated untreated plants and a reference standard. When more than one test is run, the data are averaged.
WSN Wheat Septoria Nodorum

The test system of assay [2] is Fusarium oxysporum f. sp. cucumerinum. As to the kind of experiment: In vitro fungicidal evaluation, FUSOXC. Further: ranges in brackets are in %. Format: cell-based. The note with it: 25 ppm; 3-7 days at 21° C. On the procedure:
(§2) Test compounds are dissolved or suspended in acetone and dispersed into cell well plates containing a suspension of ground fungal mycelia/spores in a nutrient broth. Assay plates are incubated for 3-7 days at 21° C. Growth inhibition is measured visually and is rated using the following scale:
(§3) Untreated controls, solvent blanks and reference standards are included in each test.
(§4) Assay fungi include the plant pathogens, Pythium ultimum (PYTHUL); Rhizoctonia solani (RHIZSO); Fusarium oxysporum f. sp. cucumerinum (FUSOXC); and Pseudocercosporella herpotrichoides (PSDCHE).
(§5) When more than one test is run, the data are averaged. The compounds evaluated are reported by compound number given in Example 3.

The next assay deals with Pythium ultimum. As to the kind of experiment: In vitro fungicidal evaluation, PYTHUL. Further: ranges in brackets are in %. The class given is cell-based. The note with it: 25 ppm; 3-7 days at 21° C. The method, then: as §2, §3, §4, §5
In a further assay the test system is Rhizoctonia solani. As to the kind of experiment: In vitro fungicidal evaluation, RHIZSO. Further: ranges in brackets are in %. Format: cell-based. The note with it: 25 ppm; 3-7 days at 21° C. The method, then: as §2, §3, §4, §5
In assay [3] the test system is Pseudocercosporella herpotrichoides. The assay can be described thus: In vitro fungicidal evaluation, PSDCHE. Further: ranges in brackets are in %. The note with it: 25 ppm; 3-7 days at 21° C. The class given is cell-based. The method, then:
as §2, §3, §4, §5

Assay [4] concerns Septoria nodorum (propiconazole-resistant and -sensitive strains). The class given is cell-based. The note with it: EC50 resistant strain / EC50 sensitive strain, 50 to 54 hours.
The subject of assay [5] is Ustilago avenae (triadimefon-resistant and -sensitive strains). The class given is cell-based. The note with it: EC50 resistant strain / EC50 sensitive strain, 50 to 54 hours.
Assay [6] has as its system Cladosporium cucumerinum (fenarimol-resistant and -sensitive strains). Format: cell-based. The note with it: EC50 resistant strain / EC50 sensitive strain, 50 to 54 hours.

As for `Clc1ccc(C(Cn2ccnc2)OB(c2ccccc2)c2ccccc2)c(Cl)c1` (stereo not drawn) [Compound 6, 1-(2,4-Dichlorophenyl)-2-(imidazol-1-yl)ethyl diphenylborinate], the “Disease control rating, AS” value in the assay on Venturia inaequalis is 3 (30-44). Besides, the “Disease control rating, GDM” value with Plasmopara viticola is 0 (0). In the assay on Botrytis cinerea, the “Disease control rating, PB” value was 0 (0). Further, the “Disease control rating, RB” value in the assay on Pyricularia grisea is 0 (0). The “Disease control rating, SBC” value with Cercospora beticola is 5 (60-74). The “Disease control rating, TEB” value with Alternaria solani is recorded as 0 (0). Besides, the “Disease control rating, WPM” value in assay [1] is 8 (96-99). Further, the “Disease control rating, WSN” value with Septoria nodorum is 0 (0). The “Growth inhibition rating, FUSOXC” value in [2] was 9 (100). Also, the “Growth inhibition rating, PYTHUL” value in the assay with Pythium ultimum is listed as 7 (90-99). In addition, in the assay on Rhizoctonia solani, the “Growth inhibition rating, RHIZSO” value is 9 (100). Besides, the “Growth inhibition rating, PSDCHE” value in [3] was 0 (0). Besides, in [4], the “Resistance Factor, Septoria nodorum” value was 1.0. Moreover, the “Resistance Factor, Ustilago avenae” value in assay [5] is recorded as 1.6. Moreover, in assay [6], the “Resistance Factor, Cladosporium cucumerinum” value turned out to be 1.1.

The record behind these values is patent US5591726A, “Heterocyclylalkyl diarylboron ester and thioester fungicidal agents” (American Cyanamid Company, priority 1994, dated 1997).
